Earlier results as cited in patent publication US20120201914A1, “Method and Composition for Improving Animal Oral Health” (priority 2011, published 2012).

Tested on: various oral pathogens, such as S. mutans, C. albicans, A. actinomycetemcomitans, F. nucleatum, and P. gingivalis
Conditions: against various oral pathogens; recent studies

Row | SMILES | antibacterial activity
1 | CC/C=C\C/C=C\C/C=C\C/C=C\C/C=C\CCCC(=O)OC [EPA-ME] | antibacterial activities
2 | CC/C=C\C/C=C\C/C=C\CCCCCCCC(=O)OCC [ALA-EE] | antibacterial activities
3 | CC/C=C\C/C=C\C/C=C\CCCCCCCC(=O)OC [ALA-ME] | antibacterial activities
4 | CC/C=C\C/C=C\C/C=C\C/C=C\C/C=C\C/C=C\CCC(=O)OCC [DHA-EE] | antibacterial activities
5 | CC/C=C\C/C=C\C/C=C\CCCCCCCC(=O)O [ALA, α-linolenic acid] | antibacterial activities
6 | CC/C=C\C/C=C\C/C=C\C/C=C\C/C=C\C/C=C\CCC(=O)OC [DHA-ME] | antibacterial activities
7 | CC/C=C\C/C=C\C/C=C\C/C=C\C/C=C\CCCC(=O)OCC [EPA-EE] | antibacterial activities
